Source: US6302119A, “Low odor permanent waving compositions containing a disulfide” (priority 1999, dated 2001)
“Also recorded” adds a separate entry of the source.

Legend:
[1] = cited from earlier work; for odor: permanent wave; for waving performance: compared to TGA where stated
[2] = thiol; cited from earlier work
[3] = in vivo; cited from earlier work
[4] = gas chromatography; waving compositions; cited from earlier work
[5] = Odor evaluation by 3-4 panelists of activator, waving composition and hair tresses; conditions: for Odor rating of waving composition (with activator): GMT alone 3.6; for Odor of hair rating: GMT alone 2.8; for Odor rating of activator (GMT + additive): GMT alone 3.8; for odor effect: additive in GMT, concentration not specified
Procedure: The disulfide or thiol additive was added in the concentration indicated in Tables 3 and 4, to 200 g of neat glyceryl monothioglycolate (GMr) in a 250 mL beaker.
Odor evaluation was conducted by 3-4 panelists who rated the odors on a scale of 1-5 where 1=no malodor and 5=extreme malodor. […] To this solution was added two tresses of dark brown, virgin hair (1 inch wide, 6 inches long), that had been washed with a 10% solution of SLS and soaked in synthetic sweate^8 at 37° C. for 17 hr, then lightly rinsed. The beaker containing the GMT activator was covered with foil and was allowed to sit for 5 to 10 minutes prior to odor evaluation. The tresses were then allowed to process in the wave composition for 20 minutes at room temperature in a covered beaker. The tresses were rinsed with tap water, towel blotted, then added to 80 mL of Matrix Opticurl Rebonding Neutralizer and processed for 5 minutes. After rinsing, the damp hair was evaluated for odor.
8. Recipe for synthetic sweat: 10 g sodium chloride, 1 g potassium hydrogen phosphate, 0.25 g histidine, lactic acid to adjust pH to 3.2 and water to make 1 L.

[6] = 0.005 wt % in GMT, scale 1-5, 1 = no malodor
[7] = 0.005 wt % in GMT, scale 1-5, 1 = no malodor, damp hair after neutralizer
[8] = 0.005 wt % in GMT, scale 1 = no malodor, 5 = extreme malodor, average of 3-4 panelists
[9] = 0.01 wt % in GMT, scale 1-5, 1 = no malodor
[10] = 0.1 wt % in GMT, scale 1-5, 1 = no malodor

SMILES: NCCS [Cysteamine]
- odor [1]: likened to burnt popcorn or corn chips
- pKa [2]: 8.6

SMILES: O=C(CS)OCC(O)CO (centres unmarked) [GMT, Glyceryl monothioglycolate]
- skin irritation [3]: causes skin irritation in some people
- odor [1]: more pronounced from GMT (glyceryl monothioglycolate) acid waves, than from ATG (ammonium thioglycolate) alkaline waves
- pKa [2]: 7.8

SMILES: CC(S)C(=O)O (centres unmarked) [Thiolactic acid]
- toxicology / mildness [3]: milder on the epidermis
- waving performance [1]: less efficient than TGA

SMILES: O=C(O)CS [ammonium thioglycolate]
- hydrogen sulfide in headspace [4]: ppm levels

SMILES: N[C@@H](CS)C(=O)O [cysteine]
- skin irritation [3]: is an irritant
- waving performance [1]: produces weaker curls than TGA

SMILES: CC(C)CCCCCOC(=O)CSSCC(=O)OCCCCCC(C)C [di-i-octyldithiodiglycolate]
- odor reduction ([5]; 0.005%): removed the sulfur odor from GMT without adding the petroleum odor of the disulfide; also recorded: better than those were from the i-octylthioglycolate; also recorded: the waving composition and the hair smell more neutral, and less chemical than the other solutions; also recorded: essentially no odor left on the hair
- panelist preference vs GMT alone, formulation odor and post-perm hair odor ([5]; 0.005% in GMT, duplicate experiments): all panelists preferred the GMT containing 0.005% disulfide compared to GMT alone
- Odor rating of waving composition (with activator) [5, 6]: 2.1
- Odor of hair rating [5, 7]: 1.1
- Odor rating of activator (GMT + additive) [5, 8]: 2.2
- odor reduction / odor detected ([5]; 0.01%): comparable odor results; also recorded: petroleum-like sulfur smell of the disulfide itself
- Odor of hair rating [5, 9]: 1.8
- Odor rating of waving composition (with activator) [5, 9]: 3.0
- Odor rating of activator (GMT + additive) [5, 9]: 2.5
- Odor of hair rating [5, 10]: 2.8
- Odor rating of waving composition (with activator) [5, 10]: 2.3
- Odor rating of activator (GMT + additive) [5, 10]: 2.5
- odor effect [5]: reduces the thiol odor associated with a GMT wave in all three categories evaluated

SMILES: CCCCOC(=O)CSSCC(=O)OCCCC [di-n-butyldithiodiglycolate]
- Odor rating of waving composition (with activator) [5, 6]: 2.0
- Odor of hair rating [5, 7]: 3.5
- Odor rating of activator (GMT + additive) [5, 8]: 2.0
- Odor of hair rating [5, 9]: 4
- Odor rating of waving composition (with activator) [5, 9]: 3.8
- Odor rating of activator (GMT + additive) [5, 9]: 2.8
- odor effect ([5]; listed as Di-butyldithiodiglycolate): effectively lowers odor in the activator and in the waving composition
- odor effect ([5]; listed as dibutyldithioglycolate): less of an odor reducing effect compared to di-i-octyldithiodiglycolate
- post-perm odor on hair ([5]; vs original GMT odor): leave a sulfur malodor on the hair that is more disagreeable than the original GMT odor

SMILES: CCCCCCCSSCCCCCCC [di-n-heptyldisulfide, di-n-heptyl disulfide]
- Odor rating of waving composition (with activator) [5, 6]: 5
- Odor rating of activator (GMT + additive) [5, 8]: 5
- Odor rating of waving composition (with activator) [5, 9]: 5
- Odor rating of activator (GMT + additive) [5, 9]: 5
- odor effect [5]: increased malodor compared to non-disulfide containing formulations
- odor effect ([5]; listed as diheptyldisulfide): produces an odor itself that is more disagreeable than the GMT odor alone

SMILES: O=C(O)CS [thioglycolic acid]
- toxicology / mildness [3]: good toxicology
- waving performance [1]: good performance
- odor [1]: unpleasant odor
